Key:
ScN2a [1] = assay: Inhibition of PrPSc accumulation in mouse ScN2a cell line relative to control; type: functional, cell-based
[2] = Therapeutic index, LD50 for ScN2a cells/EC50 for PrPSc accumulation in ScN2a cells; type: cell-based; conditions: mouse, read-out: Ratio LD50/EC50
HepG2 = assay: Cytotoxicity against HepG2 cells relative to control; type: functional; conditions: Homo sapiens, read-out: LD50 (the source's name)
HEK293 = assay: Cytotoxicity against HEK293 cells relative to control; type: functional; conditions: Homo sapiens, read-out: LD50 (the source's name)
ScN2a [3] = assay: Cytotoxicity against mouse ScN2a cell line relative to control; type: functional; conditions: read-out: LD50 (the source's name)

SMILES | EC50 (ScN2a [1]) [µM] | selectivity ratio [2] | CC50 (HepG2) [µM] | CC50 (HEK293) [µM] | CC50 (ScN2a [3]) [µM]
CCCN(CC)CCCNc1c2ccc(OC)cc2nc2ccc(C(F)(F)F)cc12 | 0.8 | 9.8 | 16.5 | 14.6 | 7.6
CCCN(CCC)CCCNc1c2ccc(OC)cc2nc2c(C)cccc12 | 1 | 1.3 | 0.7 | 0.7 | 1.4
CCCN(CCCNc1c2ccc(OC)cc2nc2c(C)cccc12)CC(C)C | 1 | 1.3 | 0.7 | 1.4 | 1.3
CCN(CC)CCCC(C)Nc1c2ccc(OC)cc2nc2ccc(Cl)cc12 (stereo unspecified) | 0.7 | 23.3 | – | – | 17.4
CCCN(CCC)CCCNc1c2ccc(Cl)cc2nc2ccc(OC)cc12 | 0.6 | 10.9 | – | – | 6.4
CCCN(CCC)CCCNc1c2ccc(OC)cc2nc2ccc(C(F)(F)F)cc12 | 0.4 | 28.6 | 18.1 | 16.4 | 11.7
CCN(CCCNc1c2ccc(OC)cc2nc2c(C)c(F)ccc12)CC(C)C | – | – | 0.6 | 0.7 | 0.6
CCN(CCCNc1c2ccc(OC)cc2nc2ccc(C(F)(F)F)cc12)Cc1ccccc1O | 3.9 | 2.6 | > 25 | 23.1 | 13
CCCN(CC)CCCNc1c2ccc(OC)cc2nc2ccc(Cl)cc12 | 0.6 | 13.6 | 6.9 | 4.4 | 8.5
CCN(CC)CCCC(C)Nc1c2ccc(Cl)cc2nc2ccc(OC)cc12 (stereo unspecified) [QUINACRINE] | 0.5 | – | 7.9 | 7.6 | 9.6
CCCN(CC)CCCNc1c2ccc(OC)cc2nc2c(C)c(F)ccc12 | – | – | 0.7 | 0.8 | 0.6
CCCN(CCCNc1c2ccc(OC)cc2nc2ccc(C(F)(F)F)cc12)Cc1ccccc1 | 7.1 | 2.6 | > 25 | 22.4 | 18.3
CCCN(CCC)CCCNc1c2ccc(OC)cc2nc2ccc(Cl)cc12 | 0.4 | 15.8 | 13.8 | 10.7 | 6

Reference: ChEMBL document CHEMBL1149476, “Structure-activity relationship study of 9-aminoacridine compounds in scrapie-infected neuroblastoma cells” (Bioorg Med Chem Lett, 2006)
